We go through 5 compounds from patent US20250057997A1, “CONJUGATES COMPRISING COVALENT BINDERS FOR TARGETING INTRACELLULAR PROTEINS” (RayzeBio, Inc., priority 2021, published 2025).

T1 sequence (P00533 669-1011 T790M/L858R): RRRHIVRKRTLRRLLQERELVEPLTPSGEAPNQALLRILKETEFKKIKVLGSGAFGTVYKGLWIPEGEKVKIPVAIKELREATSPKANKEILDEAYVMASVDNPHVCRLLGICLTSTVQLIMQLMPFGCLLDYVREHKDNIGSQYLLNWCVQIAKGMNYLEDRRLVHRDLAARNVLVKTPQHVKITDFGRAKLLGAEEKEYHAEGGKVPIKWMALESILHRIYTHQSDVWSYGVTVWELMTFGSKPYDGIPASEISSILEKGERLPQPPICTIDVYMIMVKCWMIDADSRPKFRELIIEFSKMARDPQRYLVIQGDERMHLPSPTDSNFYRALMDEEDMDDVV

The first assay addresses T1, mutant EGFR (T790M, L858R) (Homo sapiens, UniProt P00533, L858R/T790M).
T1 construct: The EGFR constructs span amino acids R669 to V1011 of the EGFR protein; made in house; host or cells: E. coli derived from BL21 (T7 phage) for most assays; remaining kinases in HEK-293 cells
Put plainly: In vitro kinase assay (phage/DNA-tagged kinase competition binding, qPCR readout), mutant EGFR. To be noted: EGFR construct R669 to V1011; 11-point 3-fold dilution series; 1 hour at room temperature. How it is done: For most assays, kinase-tagged T7 phage strains were prepared in an E. coli host derived from the BL21 strain. For the EGFR assays, wild-type EGFR, or mutant EGFR (T790M, L858R) were utilized. The EGFR constructs span amino acids R669 to V1011 of the EGFR protein. E. coli were grown to log-phase and infected with T7 phage and incubated with shaking at 32° C. until lysis. The lysates were centrifuged and filtered to remove cell debris. The remaining kinases were produced in HEK-293 cells and subsequently tagged with DNA for qPCR detection. Streptavidin-coated magnetic beads were treated with biotinylated small molecule ligands for 30 minutes at room temperature to generate affinity resins for kinase assays. The liganded beads were blocked with excess biotin and washed with blocking buffer (SeaBlock (Pierce), 1% BSA, 0.05% Tween 20, 1 mM DTT) to remove unbound ligand and to reduce non-specific binding. Binding reactions were assembled by combining kinases, liganded affinity beads, and test compounds in 1× binding buffer (20% SeaBlock, 0.17×PBS, 0.05% Tween 20, 6 mM DTT). Test compounds were prepared as 111× stocks in 100% DMSO. Kds were determined using an 11-point 3-fold compound dilution series with three DMSO control points. All compounds for Kd measurements are distributed by acoustic transfer (non-contact dispensing) in 100% DMSO. The compounds were then diluted directly into the assays such that the final concentration of DMSO was 0.9%. All reactions performed in polypropylene 384-well plate. Each was a final volume of 0.02 ml. The assay plates were incubated at room temperature with shaking for 1 hour and the affinity beads were washed with wash buffer (1×PBS, 0.05% Tween 20). The beads were then re-suspended in elution buffer (1×PBS, 0.05% Tween 20, 0.5 μM nonbiotinylated affinity ligand) and incubated at room temperature with shaking for 30 minutes. The kinase concentration in the eluates was measured by qPCR.
The compound `C=CC(=O)N[C@@H]1CN(c2nc(Nc3cn(CCCCCNC(=O)CN4CCN(CC(=O)O)CCN(CC(=O)O)CCN(CC(=O)O)CC4)nc3OC)c3ncn(C)c3n2)C[C@H]1F` [Compound 002, 2-[4,7-bis(carboxymethyl)-10-[2-[5-[4-[[2-[(3R,4R)-3-fluoro-4-(prop-2-enoylamino)pyrrolidin-1-yl]-9-methyl-purin-6-yl]amino]-3-methoxy-pyrazol-1-yl]pentylamino]-2-oxo-ethyl]-1,4,7,10-tetrazacyclododec-1-yl]acetic acid] yielded a Kd below 1 nM.

The same assay, now with this note: ratio of Kd EGFR (WT) to Kd EGFR (L858R, T790M) double mutant.
Regarding `C=CC(=O)N[C@@H]1CN(c2nc(Nc3cn(CCCNC(=O)CN4CCN5CCN6CCN(CC4)CC(=O)[O][Lu]([O]C(=O)C5)[O]C(=O)C6)nc3OC)c3ncn(C)c3n2)C[C@H]1F` [Compound 001-Lu], the “Binding Affinity ratio of WT/DM” value is reported as “A (4 < A ≤ 25)”.
With `C=CC(=O)N[C@@H]1CN(c2nc(Nc3cn(CCCCCNC(=O)CN4CCN5CCN6CCN(CC4)CC(=O)[O][Lu]([O]C(=O)C5)[O]C(=O)C6)nc3CC)c3ncn(C(C)(C)C)c3n2)C[C@H]1F` [Compound 005-Lu], the “Binding Affinity ratio of WT/DM” value is “C (100 < C ≤ 1000)”.
In the case of `C=CC(=O)N[C@@H]1CN(c2nc(Nc3cn(CCCCCNC(=O)CN4CCN5CCN6CCN(CC4)CC(=O)[O][Lu]([O]C(=O)C5)[O]C(=O)C6)nc3OC)c3ncn(C(C)(C)C)c3n2)C[C@H]1F` [Compound 004-Lu], the “Binding Affinity ratio of WT/DM” value is listed as “B (25 < B ≤ 100)”.
Turning to `C=CC(=O)N[C@@H]1CN(c2nc(Nc3cn(CCCCCNC(=O)CN4CCN(CC(=O)O)CCN(CC(=O)O)CCN(CC(=O)O)CC4)nc3OC)c3ncn(C)c3n2)C[C@H]1F` [Compound 002, 2-[4,7-bis(carboxymethyl)-10-[2-[5-[4-[[2-[(3R,4R)-3-fluoro-4-(prop-2-enoylamino)pyrrolidin-1-yl]-9-methyl-purin-6-yl]amino]-3-methoxy-pyrazol-1-yl]pentylamino]-2-oxo-ethyl]-1,4,7,10-tetrazacyclododec-1-yl]acetic acid], the “Binding Affinity ratio of WT/DM” value is “A (4 < A ≤ 25)”.
With `C=CC(=O)N1C[C@H](COc2nc(Nc3cnn(CCCCCNC(=O)CN4CCN5CCN6CCN(CC4)CC(=O)[O][Lu]([O]C(=O)C5)[O]C(=O)C6)c3)nc3[nH]cc(Cl)c23)[C@@H](OC)C1` [Compound 007-Lu, N-[5-[4-[[5-chloro-4-[[(3R,4R)-4-methoxy-1-prop-2-enoyl-pyrrolidin-3-yl]methoxy]-7H-pyrrolo[2,3-d]pyrimidin-2-yl]amino]pyrazol-1-yl]pentyl]-2-(3,16,19-trioxo-2,17,18-trioxa-5,8,11,14-tetraza-1λ3-lutetatricyclo[9.6.3.25,14]docosan-8-yl) acetamide], the “Binding Affinity ratio of WT/DM” value is reported as “C (100 < C ≤ 1000)”.
